For this test, the target named is T1, FimH (Escherichia coli, UniProt P08191).
T1 construct: endogenous in cells; host or cells: type 1 piliated uropathogenic E. coli (UPEC)
T1 sequence (P08191 22-300): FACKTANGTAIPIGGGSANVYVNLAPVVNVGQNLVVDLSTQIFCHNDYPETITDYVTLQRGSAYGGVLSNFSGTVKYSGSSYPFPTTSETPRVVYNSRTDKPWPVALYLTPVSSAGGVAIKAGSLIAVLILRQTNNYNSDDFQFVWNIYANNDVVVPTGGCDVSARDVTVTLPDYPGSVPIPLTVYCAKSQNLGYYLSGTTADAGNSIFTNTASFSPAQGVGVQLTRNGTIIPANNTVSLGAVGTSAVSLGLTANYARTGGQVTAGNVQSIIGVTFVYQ
The experiment in a line: Hemagglutination inhibition (HAI) assay, guinea pig red blood cells. The format is cell-based, E. coli. To be noted: concentration inhibiting >90% hemagglutination of guinea pig red blood cells. How it is done:
FIG. 15 depicts the hemagglutination assay (HA) used to assess the compounds' ability to block FimH mediated binding. The HAI titer quantitatively measure the effect of inhibitors on blocking the FimH-mediated hemagglutination (HA) of guinea pig red blood cell infected with E. coli.
In some embodiments, activity of the compound is measured using hemmagglutination titer of guinea pig red blood cells. Hemagglutination of guinea pig red blood cells by type1 piliated UPEC is dependent upon FimH mannose binding ability and serial dilutions allow a quantitative analysis.
Hemagglutination assays for mannose-sensitive agglutination of guinea pig red blood cells were performed as previously described.
As to `CNC(=O)c1cccc(-c2ccc([C@H](O)C3OC(CO)C(O)C(O)C3O)c(C)c2)c1` (single isomer, unassigned) [Example 18B], the “HAI Titer EC>90” value was 6.000 µM.
The result for `COC(=O)c1cccc(-c2ccc(O[C@H]3O[C@@H](CO)[C@@H](O)[C@H](O)[C@H]3O)c(C)c2)c1` [Example 1, methyl 3-[3-methyl-4-[(2R,3R,4S,5S,6S)-3,4,5-trihydroxy-6-(hydroxymethyl)tetrahydropyran-2-yl]oxy-phenyl]benzoate] reads 0.12 µM; that for `Cc1cc(-c2cccc(C(=O)Nc3ccncc3)c2)ccc1O[C@H]1O[C@@H](CO)[C@@H](O)[C@H](O)[C@H]1O` [Example 3, 3-[3-methyl-4-[(2R,3R,4S,5S,6S)-3,4,5-trihydroxy-6-(hydroxymethyl)tetrahydropyran-2-yl]oxy-phenyl]-N-(4-pyridyl)benzamide], 0.064 µM.
Turning to `Cc1cc(-c2cccc(C(=O)Nc3cccnc3)c2)ccc1O[C@H]1O[C@@H](CO)[C@@H](O)[C@H](O)[C@H]1O` [Example 4, 3-[3-methyl-4-[(2R,3R,4S,5S,6S)-3,4,5-trihydroxy-6-(hydroxymethyl)tetrahydropyran-2-yl]oxy-phenyl]-N-(3-pyridyl)benzamide], the “HAI Titer EC>90” value turned out to be 0.032 µM.
For the molecule `Cc1nnc(-c2ccc(-c3ccc(O[C@H]4O[C@@H](CO)[C@@H](O)[C@H](O)[C@H]4O)c(C)c3)cc2)o1` [Example 5, (2S,3S,4S,5R,6R)-2-(hydroxymethyl)-6-[2-methyl-4-[4-(5-methyl-1,3,4-oxadiazol-2-yl)phenyl]phenoxy]tetrahydropyran-3,4,5-triol], the “HAI Titer EC>90” value was found to be 0.062 µM.
As to `Cc1nnc(-c2cccc(-c3ccc(O[C@H]4O[C@@H](CO)[C@@H](O)[C@H](O)[C@H]4O)c(C)c3)c2)o1` [Example 6, (2S,3S,4S,5R,6R)-2-(hydroxymethyl)-6-[2-methyl-4-[3-(5-methyl-1,3,4-oxadiazol-2-yl)phenyl]phenoxy]tetrahydropyran-3,4,5-triol], the “HAI Titer EC>90” value was 0.062 µM.
For `COC(=O)Cn1ccc2ccc(-c3ccc(O[C@H]4O[C@@H](CO)[C@@H](O)[C@H](O)[C@H]4O)c(C)c3)cc2c1=O` [Example 8, methyl 2-[7-[3-methyl-4-[(2R,3R,4S,5S,6S)-3,4,5-trihydroxy-6(hydroxymethyl)tetrahydropyran-2-yl]oxy-phenyl]-1-oxo-2-isoquinolyl]acetate], the “HAI Titer EC>90” value stood at 0.006 µM.
For `Cc1cc(-c2ccc3ccn(CC(=O)O)c(=O)c3c2)ccc1O[C@H]1O[C@@H](CO)[C@@H](O)[C@H](O)[C@H]1O` [Example 9, 2-[7-[3-methyl-4-[(2R,3R,4S,5S,6S)-3,4,5-trihydroxy-6-(hydroxymethyl)tetrahydropyran-2-yl]oxy-phenyl]-1-oxo-2-isoquinolyl]acetic acid], the “HAI Titer EC>90” value came to 0.016 µM.
For `Cc1cc(-c2ccc3ccn(CC(=O)Nc4cccnc4)c(=O)c3c2)ccc1O[C@H]1O[C@@H](CO)[C@@H](O)[C@H](O)[C@H]1O` [Example 10, 2-[7-[3-methyl-4-[(2R,3R,4S,5S,6S)-3,4,5-trihydroxy-6-(hydroxymethyl)tetrahydropyran-2-yl]oxy-phenyl]-1-oxo-2-isoquinolyl]-N-(3-pyridyl)acetamide], the “HAI Titer EC>90” value was 0.001 µM.
On to `Cc1cc(-c2ccc3ccn(CC(=O)Nc4ccncc4)c(=O)c3c2)ccc1O[C@H]1O[C@@H](CO)[C@@H](O)[C@H](O)[C@H]1O` [Example 11, 2-[7-[3-methyl-4-[(2R,3R,4S,5S,6S)-3,4,5-trihydroxy-6-(hydroxymethyl)tetrahydropyran-2-yl]oxy-phenyl]-1-oxo-2-isoquinolyl]-N-(4-pyridyl)acetamide], for which the “HAI Titer EC>90” value stood at 0.001 µM.
The result for `Cc1cc(-c2ccc3ccn(CC(=O)N4CCN(C)CC4)c(=O)c3c2)ccc1O[C@H]1O[C@@H](CO)[C@@H](O)[C@H](O)[C@H]1O` [Example 12, 2-[2-(4-methylpiperazin-1-yl)-2-oxo-ethyl]-7-[3-methyl-4-[(2R,3R,4S,5S,6S)-3,4,5-trihydroxy-6-(hydroxymethyl)tetrahydropyran-2-yl]oxy-phenyl]isoquinolin-1-one] reads 0.008 µM.

The values are drawn from patent US9957289B2, “Compounds and methods for treating bacterial infections” (Washington University, priority 2013, dated 2018).
